Measurements from ChEMBL document CHEMBL1152560, “Substituted 2-arylbenzothiazoles as kinase inhibitors: hit-to-lead optimization” (Bioorg Med Chem, 2009).

Columns and labels:
[1] = target: Serine/threonine-protein kinase pim-2 (Homo sapiens) (UniProt Q9P1W9); assay: Residual activity of PIM2 at 1 uM by microplate scintillation counting
[2] = target: Serine/threonine-protein kinase Nek6 (Homo sapiens) (UniProt Q9HC98); assay: Residual activity of NEK6 at 10 uM by microplate scintillation counting
Sequence of Serine/threonine-protein kinase Nek6 (Homo sapiens) (Q9HC98 whole entry, the tested form may be a part): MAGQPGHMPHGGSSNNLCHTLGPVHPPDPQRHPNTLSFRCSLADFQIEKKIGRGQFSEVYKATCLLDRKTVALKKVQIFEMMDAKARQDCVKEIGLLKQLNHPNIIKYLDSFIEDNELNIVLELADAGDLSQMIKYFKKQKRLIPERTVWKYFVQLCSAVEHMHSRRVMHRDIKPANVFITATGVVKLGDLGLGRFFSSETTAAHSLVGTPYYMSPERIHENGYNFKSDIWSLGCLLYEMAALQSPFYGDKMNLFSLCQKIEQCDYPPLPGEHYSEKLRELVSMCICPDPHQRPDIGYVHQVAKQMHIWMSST

[3] = target: LIM domain kinase 1 (Homo sapiens) (UniProt P53667); assay: Residual activity of LIMK1 at 1 uM by microplate scintillation counting
Sequence of LIM domain kinase 1 (Homo sapiens) (P53667 whole entry, looked up, the tested form may be a part): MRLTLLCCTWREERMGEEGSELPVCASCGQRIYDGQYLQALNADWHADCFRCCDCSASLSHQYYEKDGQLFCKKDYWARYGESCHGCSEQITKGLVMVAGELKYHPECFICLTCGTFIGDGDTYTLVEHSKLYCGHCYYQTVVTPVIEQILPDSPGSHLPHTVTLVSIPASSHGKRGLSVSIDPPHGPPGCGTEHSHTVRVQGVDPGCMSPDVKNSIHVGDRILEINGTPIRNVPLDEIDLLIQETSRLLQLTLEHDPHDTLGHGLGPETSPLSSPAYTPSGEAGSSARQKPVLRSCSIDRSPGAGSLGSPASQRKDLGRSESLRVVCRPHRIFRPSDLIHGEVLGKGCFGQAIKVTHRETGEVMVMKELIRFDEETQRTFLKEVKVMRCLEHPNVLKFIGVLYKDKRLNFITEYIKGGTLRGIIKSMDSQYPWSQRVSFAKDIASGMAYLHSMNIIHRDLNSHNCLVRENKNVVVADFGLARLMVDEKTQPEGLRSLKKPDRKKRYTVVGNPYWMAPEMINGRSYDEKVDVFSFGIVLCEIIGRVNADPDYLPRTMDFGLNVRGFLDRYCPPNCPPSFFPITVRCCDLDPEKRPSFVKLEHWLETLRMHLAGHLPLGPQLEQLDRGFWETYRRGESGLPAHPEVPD

[4] = target: MAP kinase-activated protein kinase 3 (Homo sapiens) (UniProt Q16644); assay: Residual activity of MAPKAPK3 at 1 uM by microplate scintillation counting
Sequence of MAP kinase-activated protein kinase 3 (Homo sapiens) (Q16644 whole entry, looked up): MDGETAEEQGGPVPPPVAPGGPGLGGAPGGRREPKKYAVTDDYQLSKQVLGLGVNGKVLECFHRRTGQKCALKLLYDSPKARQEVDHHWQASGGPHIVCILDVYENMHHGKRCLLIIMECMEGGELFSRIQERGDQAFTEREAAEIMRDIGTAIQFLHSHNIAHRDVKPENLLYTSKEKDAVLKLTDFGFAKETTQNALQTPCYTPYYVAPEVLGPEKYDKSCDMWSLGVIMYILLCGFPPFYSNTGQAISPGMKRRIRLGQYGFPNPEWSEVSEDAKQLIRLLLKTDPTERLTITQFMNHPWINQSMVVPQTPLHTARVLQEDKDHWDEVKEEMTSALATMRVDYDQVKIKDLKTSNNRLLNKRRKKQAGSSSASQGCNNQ

[5] = system: Serine/threonine-protein kinase B-raf (Homo sapiens), P15056 [V600E]; assay: Residual activity of B-RAF V600E mutant at 1 uM by microplate scintillation counting
Sequence of Serine/threonine-protein kinase B-raf (Homo sapiens), P15056 [V600E] (P15056 whole entry V600E): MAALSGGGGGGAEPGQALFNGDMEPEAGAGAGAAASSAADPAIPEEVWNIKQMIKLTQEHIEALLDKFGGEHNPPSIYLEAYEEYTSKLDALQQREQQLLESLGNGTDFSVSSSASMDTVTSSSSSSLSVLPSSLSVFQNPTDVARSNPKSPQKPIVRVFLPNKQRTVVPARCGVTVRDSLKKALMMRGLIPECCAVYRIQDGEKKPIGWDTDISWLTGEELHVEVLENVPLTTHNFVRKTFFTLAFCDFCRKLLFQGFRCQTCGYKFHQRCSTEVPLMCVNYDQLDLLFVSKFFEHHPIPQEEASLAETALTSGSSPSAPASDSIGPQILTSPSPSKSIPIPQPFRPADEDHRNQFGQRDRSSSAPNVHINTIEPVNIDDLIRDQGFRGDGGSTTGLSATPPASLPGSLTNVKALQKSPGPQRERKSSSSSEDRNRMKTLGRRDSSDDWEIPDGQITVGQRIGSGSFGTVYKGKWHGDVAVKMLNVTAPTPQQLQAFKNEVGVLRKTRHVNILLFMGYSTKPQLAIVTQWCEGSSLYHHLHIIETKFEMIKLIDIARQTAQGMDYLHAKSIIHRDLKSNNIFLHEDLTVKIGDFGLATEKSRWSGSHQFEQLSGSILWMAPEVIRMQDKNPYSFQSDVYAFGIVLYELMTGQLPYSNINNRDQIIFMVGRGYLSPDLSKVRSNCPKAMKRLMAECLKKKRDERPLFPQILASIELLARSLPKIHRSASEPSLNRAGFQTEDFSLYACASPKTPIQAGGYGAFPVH

[6] = target: Dual specificity tyrosine-phosphorylation-regulated kinase 1B (Homo sapiens) (UniProt Q9Y463); assay: Residual activity of DYRK1B at 0.1 uM by microplate scintillation counting
Sequence of Dual specificity tyrosine-phosphorylation-regulated kinase 1B (Homo sapiens) (Q9Y463 whole entry, looked up): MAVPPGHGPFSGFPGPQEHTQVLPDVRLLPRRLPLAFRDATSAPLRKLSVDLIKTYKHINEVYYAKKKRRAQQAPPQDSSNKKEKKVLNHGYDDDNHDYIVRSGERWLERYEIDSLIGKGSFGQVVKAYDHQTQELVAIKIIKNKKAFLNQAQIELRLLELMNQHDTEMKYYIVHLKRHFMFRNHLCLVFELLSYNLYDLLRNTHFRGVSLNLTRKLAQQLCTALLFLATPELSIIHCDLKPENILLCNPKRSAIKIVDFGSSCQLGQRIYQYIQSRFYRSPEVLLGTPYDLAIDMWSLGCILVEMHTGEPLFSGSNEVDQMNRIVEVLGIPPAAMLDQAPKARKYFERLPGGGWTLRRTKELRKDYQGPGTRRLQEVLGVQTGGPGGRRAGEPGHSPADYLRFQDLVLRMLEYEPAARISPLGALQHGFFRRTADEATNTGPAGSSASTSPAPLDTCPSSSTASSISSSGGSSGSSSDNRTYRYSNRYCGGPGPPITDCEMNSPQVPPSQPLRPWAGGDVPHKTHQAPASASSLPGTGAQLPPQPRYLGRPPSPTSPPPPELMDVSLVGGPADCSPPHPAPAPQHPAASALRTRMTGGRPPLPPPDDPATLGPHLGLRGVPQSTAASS

[7] = target: T1, Ephrin type-B receptor 4 (Homo sapiens) (UniProt P54760); assay: Residual activity of EPHB4 at 1 uM by microplate scintillation counting
T1 sequence (whole entry): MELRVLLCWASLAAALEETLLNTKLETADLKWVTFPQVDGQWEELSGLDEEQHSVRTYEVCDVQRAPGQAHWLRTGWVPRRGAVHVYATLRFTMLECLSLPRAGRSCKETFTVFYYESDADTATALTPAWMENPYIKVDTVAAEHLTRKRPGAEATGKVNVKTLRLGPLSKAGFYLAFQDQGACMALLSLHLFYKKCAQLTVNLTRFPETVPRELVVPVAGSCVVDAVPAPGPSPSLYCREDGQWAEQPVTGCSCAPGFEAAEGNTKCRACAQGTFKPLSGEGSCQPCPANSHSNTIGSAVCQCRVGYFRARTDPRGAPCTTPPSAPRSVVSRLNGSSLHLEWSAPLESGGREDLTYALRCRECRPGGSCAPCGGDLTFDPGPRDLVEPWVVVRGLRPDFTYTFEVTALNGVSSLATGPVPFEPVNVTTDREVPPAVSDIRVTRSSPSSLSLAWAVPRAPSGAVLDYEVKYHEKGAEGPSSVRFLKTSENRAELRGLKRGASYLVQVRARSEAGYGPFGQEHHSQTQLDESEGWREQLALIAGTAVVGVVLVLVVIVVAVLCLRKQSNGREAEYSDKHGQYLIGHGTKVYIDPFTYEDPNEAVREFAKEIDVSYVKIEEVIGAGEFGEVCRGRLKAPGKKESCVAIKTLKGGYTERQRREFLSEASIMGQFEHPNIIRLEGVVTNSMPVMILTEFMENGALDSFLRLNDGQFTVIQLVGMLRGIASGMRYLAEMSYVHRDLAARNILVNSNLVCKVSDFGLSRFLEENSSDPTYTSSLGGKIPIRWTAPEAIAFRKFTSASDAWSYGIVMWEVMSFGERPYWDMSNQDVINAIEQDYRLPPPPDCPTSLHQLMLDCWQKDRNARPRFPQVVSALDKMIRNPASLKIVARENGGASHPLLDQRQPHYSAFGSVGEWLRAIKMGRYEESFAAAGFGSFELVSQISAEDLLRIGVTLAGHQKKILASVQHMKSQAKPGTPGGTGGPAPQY

[8] = target: Ribosomal protein S6 kinase alpha-3 (Homo sapiens) (UniProt P51812); assay: Residual activity of RPS6KA3 at 10 uM by microplate scintillation counting
Sequence of Ribosomal protein S6 kinase alpha-3 (Homo sapiens) (P51812 whole entry): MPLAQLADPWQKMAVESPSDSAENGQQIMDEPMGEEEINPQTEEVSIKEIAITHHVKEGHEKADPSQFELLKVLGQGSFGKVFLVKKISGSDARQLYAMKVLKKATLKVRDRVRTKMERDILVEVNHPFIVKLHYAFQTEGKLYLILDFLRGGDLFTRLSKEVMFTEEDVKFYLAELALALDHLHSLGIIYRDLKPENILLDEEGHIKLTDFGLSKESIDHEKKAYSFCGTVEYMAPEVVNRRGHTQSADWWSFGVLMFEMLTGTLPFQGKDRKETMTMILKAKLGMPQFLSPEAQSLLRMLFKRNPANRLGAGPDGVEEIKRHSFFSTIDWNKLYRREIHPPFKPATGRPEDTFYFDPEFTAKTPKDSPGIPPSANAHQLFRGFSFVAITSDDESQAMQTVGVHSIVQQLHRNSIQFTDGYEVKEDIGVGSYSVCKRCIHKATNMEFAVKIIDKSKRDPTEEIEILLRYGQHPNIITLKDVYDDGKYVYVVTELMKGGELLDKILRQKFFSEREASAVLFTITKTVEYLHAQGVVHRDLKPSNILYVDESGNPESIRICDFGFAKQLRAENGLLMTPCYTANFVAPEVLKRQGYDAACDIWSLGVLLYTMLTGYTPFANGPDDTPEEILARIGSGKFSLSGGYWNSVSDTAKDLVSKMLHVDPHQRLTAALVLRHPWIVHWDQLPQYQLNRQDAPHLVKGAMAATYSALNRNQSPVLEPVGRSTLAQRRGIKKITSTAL

[9] = target: T2, Aurora kinase A (Homo sapiens) (UniProt O14965); assay: Residual activity of Aurora-A at 1 uM by microplate scintillation counting
T2 sequence (whole entry): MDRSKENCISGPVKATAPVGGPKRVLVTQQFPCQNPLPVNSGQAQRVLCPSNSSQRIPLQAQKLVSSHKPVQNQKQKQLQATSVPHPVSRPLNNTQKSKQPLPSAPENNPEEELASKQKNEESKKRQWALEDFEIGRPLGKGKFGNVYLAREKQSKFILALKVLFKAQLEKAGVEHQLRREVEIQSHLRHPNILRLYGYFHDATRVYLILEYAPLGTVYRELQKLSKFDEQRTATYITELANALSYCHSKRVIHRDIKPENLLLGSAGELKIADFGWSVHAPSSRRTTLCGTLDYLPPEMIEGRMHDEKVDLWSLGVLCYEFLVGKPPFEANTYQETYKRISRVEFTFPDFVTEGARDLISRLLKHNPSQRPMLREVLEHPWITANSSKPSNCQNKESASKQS

[10] = target: T3, Inhibitor of nuclear factor kappa-B kinase subunit beta (Homo sapiens) (UniProt O14920); assay: Residual activity of IKK-beta at 1 uM by microplate scintillation counting
T3 sequence (whole entry): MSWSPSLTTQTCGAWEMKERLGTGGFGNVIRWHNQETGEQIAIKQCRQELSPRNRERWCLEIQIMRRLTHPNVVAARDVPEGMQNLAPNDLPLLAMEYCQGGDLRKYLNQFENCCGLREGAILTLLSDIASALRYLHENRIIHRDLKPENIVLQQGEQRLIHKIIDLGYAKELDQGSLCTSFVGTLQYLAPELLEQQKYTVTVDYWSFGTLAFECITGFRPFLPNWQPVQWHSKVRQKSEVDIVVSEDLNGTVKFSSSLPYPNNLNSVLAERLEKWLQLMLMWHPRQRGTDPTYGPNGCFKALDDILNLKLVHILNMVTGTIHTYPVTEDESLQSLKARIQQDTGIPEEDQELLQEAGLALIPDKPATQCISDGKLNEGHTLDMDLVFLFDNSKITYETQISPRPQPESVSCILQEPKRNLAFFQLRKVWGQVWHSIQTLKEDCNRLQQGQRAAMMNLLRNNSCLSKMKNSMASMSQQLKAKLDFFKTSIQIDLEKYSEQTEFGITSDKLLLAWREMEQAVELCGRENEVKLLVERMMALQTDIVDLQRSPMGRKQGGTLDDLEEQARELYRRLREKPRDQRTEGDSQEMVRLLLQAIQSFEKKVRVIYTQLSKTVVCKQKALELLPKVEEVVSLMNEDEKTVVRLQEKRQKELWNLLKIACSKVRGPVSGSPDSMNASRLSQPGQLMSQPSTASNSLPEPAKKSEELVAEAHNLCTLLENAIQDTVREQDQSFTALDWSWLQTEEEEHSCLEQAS

Sequence of Serine/threonine-protein kinase pim-2 (Homo sapiens) (Q9P1W9 whole entry, looked up): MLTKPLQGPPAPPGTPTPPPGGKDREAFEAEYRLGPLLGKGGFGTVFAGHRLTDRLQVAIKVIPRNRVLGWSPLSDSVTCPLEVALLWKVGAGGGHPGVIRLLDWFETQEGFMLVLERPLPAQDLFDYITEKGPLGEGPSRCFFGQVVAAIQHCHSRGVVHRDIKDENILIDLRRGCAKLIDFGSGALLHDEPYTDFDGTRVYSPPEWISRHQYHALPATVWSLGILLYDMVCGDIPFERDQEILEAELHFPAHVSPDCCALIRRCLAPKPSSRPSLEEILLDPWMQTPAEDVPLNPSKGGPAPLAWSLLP

Row | residual activity [1] | residual activity [2] | residual activity [3] | residual activity [4] | residual activity [5] | residual activity [6] | residual activity [7] | residual activity [8] | residual activity [9] | residual activity [10] | SMILES
1 | 89% | 94% | 82% | 94% | 83% | 98% | 127% | 58% | 25% | 98% | COc1cc2c(Oc3ccc(-c4nc5ccccc5s4)cc3)ncnc2cc1OCCCN1CCCC1
2 | 63% | 96% | 83% | 85% | 86% | 104% | 127% | 50% | 22% | 86% | COc1cc2c(Oc3ccc(-c4nc5ccccc5s4)cc3)ncnc2cc1OCCCN1CCN(C)CC1
3 | 77% | 101% | 81% | 98% | 79% | 89% | 114% | 36% | 28% | 88% | COc1cc2c(Oc3ccc(-c4nc5ccccc5s4)cc3F)ncnc2cc1OCCCN1CCN(C)CC1
